Assay results: patent publication US20220306647A1, “NOVEL INDOLE-2-CARBOXAMIDES ACTIVE AGAINST THE HEPATITUS B VIRUS (HBV)” (AICURIS GMBH & CO. KG, priority 2019, published 2022)
pEC50, pIC50: −log10 of the molar value. Where two headings read alike, the source gives them in different places.

Experiments:
HBV (HepAD38 cells) = assay: HBV replication assay: determination of HBV DNA from the supernatants of HepAD38 cells; assay type: cell-based; settings: Hepatitis B virus, 144 h, HBV DNA in HepAD38 supernatant at day 6, qPCR, read-out: Cell activity
How it was run: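 HepAD38 cells seeded without tetracycline and treated with half-log compound dilutions; tetracycline-treated wells serve as cell control. On day 6, supernatant HBV DNA was purified and quantified by real-time PCR against plasmid standards; EC50 from non-linear regression of relative copy numbers, three experiments in triplicate.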

[1] = target: T1, HBV core protein (C-terminal truncated core protein, 149 amino acids of the N-terminal assembly domain, BODIPY-FL labelled) (UniProt P03146); assay: Biochemical capsid assembly assay (fluorescence quenching)
T1 construct: fused on or other part: A single cysteine added after residue 149, at position 150; It carries the BODIPY-FL maleimide label
T1 sequence (P03146 whole entry, the tested form may be a part): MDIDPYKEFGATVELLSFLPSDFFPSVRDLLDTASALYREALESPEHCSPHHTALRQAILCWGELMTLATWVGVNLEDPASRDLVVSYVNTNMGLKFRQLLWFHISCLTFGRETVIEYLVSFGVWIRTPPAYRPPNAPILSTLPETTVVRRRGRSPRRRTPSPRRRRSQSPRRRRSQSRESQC
How it was run: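 Fluorescence quenching of BODIPY-FL-labelled core dimers (1.0 to 2.0 μM) in 50 mM HEPES pH 7.5; compounds at 8 concentrations, 0.5 log-unit dilutions from top 100, 31.6 or 10 μM, 0.5% DMSO. Assembly started with NaCl to […]; fluorescence (ex 477/em 525 nm) read after 6 min. EC50 by non-linear regression.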

[2] = read-out: Assembly activity, assembly started with NaCl, fluorescence read after 6 min
[3] = assembly started with NaCl, fluorescence read after 6 min, read-out: Assembly activity

Row | SMILES | pEC50 (HBV (HepAD38 cells)) | pIC50 [1, 2] | pIC50 [1, 3]
1 | CN1C(=O)c2c3c(nn2CC12CC2)CCN(C(=O)c1cc2cc(F)ccc2[nH]1)C3 [Example 79, 12′-(5-fluoro-1H-indole-2-carbonyl)-4′-methyl-4′,7′, 8′,12′-tetraazaspiro[cyclopropane-1,5′-tricyclo[7.4.0.0^2,7]tridecane]-1′,8′-dien-3′-one] | > 6.00 | > 5.30 | 
2 | CN(C(=O)c1cnn2c1CN(C(=O)c1cc3c(Cl)c(F)ccc3[nH]1)CC2)C1(c2ccc(C(=O)O)cc2)CC1 [Example 80, 4-{1-[N-methyl-5-(4-chloro-5-fluoro-1H-indole-2-carbonyl)-4H,5H,6H,7H-pyrazolo[1,5-a]pyrazine-3-amido]cyclopropyl}benzoic acid] | > 6.00 |  | > 5.30
3 | CN(C(=O)c1cnn2c1CN(C(=O)c1cc3c(Cl)cc(F)cc3[nH]1)CC2)C1(c2ccc(C(=O)O)cc2)CC1 [Example 81, 4-{1-[N-methyl-5-(4-chloro-6-fluoro-1H-indole-2-carbonyl)-4H,5H,6H,7H-pyrazolo[1,5-a]pyrazine-3-amido]cyclopropyl}benzoic acid] | > 6.00 |  | > 5.30
4 | Cc1cccc2[nH]c(C(=O)N3CCn4ncc(C(=O)N(C)C5(c6ccc(C(=O)O)cc6)CC5)c4C3)cc12 [Example 82, 4-{1-[N-methyl-5-(4-methyl-1H-indole-2-carbonyl)-4H,5H,6H,7H-pyrazolo[1,5-a]pyrazine-3-amido]cyclopropyl}benzoic acid] | > 6.00 | > 5.30 | 
5 | CCc1cccc2[nH]c(C(=O)N3CCn4ncc(C(=O)N(C)C5(c6ccc(C(=O)O)cc6)CC5)c4C3)cc12 [Example 83, 4-{1-[N-methyl-5-(4-ethyl-1H-indole-2-carbonyl)-4H,5H,6H,7H-pyrazolo[1,5-a]pyrazine-3-amido]cyclopropyl}benzoic acid] | > 6.00 |  | > 5.30
6 | CN(C(=O)c1cnn2c1CN(C(=O)c1cc3ccccc3[nH]1)CC2)C1(c2cc(C(=O)O)on2)CC1 [Example 84] | > 6.00 | > 5.30 | 
7 | CN1C(=O)c2c3c(nn2CC12CC2)CCN(C(=O)c1cc2c(F)c(F)ccc2[nH]1)C3 [Example 85, 12′-(4,5-difluoro-1H-indole-2-carbonyl)-4′-methyl-4′,7′,8′,12′-tetraazaspiro[cyclopropane-1,5′-tricyclo[7.4.0.0^2,7]tridecane]-1′,8′-dien-3′-one] | > 6.00 |  | > 5.30
8 | CCN1C(=O)c2c3c(nn2CCC12CC2)CCN(C(=O)c1cc2ccccc2[nH]1)C3 [Example 86, 13′-ethyl-4′-(1H-indole-2-carbonyl)-4′,8′,9′,13′-tetraazaspiro[cyclopropane-1,12′-tricyclo[7.5.0.0^2,7]tetradecane]-1′,7′-dien-14′-one] | > 6.00 |  | > 5.30
9 | CN1C(=O)c2c3c(nn2CC12CC2)CCN(C(=O)c1cc2c(Cl)c(F)ccc2[nH]1)C3 [Example 87, 12′-(4-chloro-5-fluoro-1H-indole-2-carbonyl)-4′-methyl-4′,7′,8′,12′-tetraazaspiro[cyclopropane-1,5′-tricyclo[7.4.0.0^2,7]tridecane]-1′,8′-dien-3′-one] | > 6.00 | > 5.30 | 
10 | Cc1cc(F)cc2[nH]c(C(=O)N3CCc4nn5c(c4C3)C(=O)N(C)C3(CC3)C5)cc12 [Example 88, 12′-(6-fluoro-4-methyl-1H-indole-2-carbonyl)-4′-methyl-4′,7′,8′,12′-tetraazaspiro[cyclopropane-1,5′-tricyclo[7.4.0.0^2,7]tridecane]-1′,8′-dien-3′-one] | > 6.00 |  | > 5.30
11 | O=C(c1cc2ccccc2[nH]1)N1CCc2nn3c(c2C1)C(=O)N(CCO)C1(CC3)CC1 [Example 89, 13′-(2-hydroxyethyl)-4′-(1H-indole-2-carbonyl)-4′, 8′,9′,13′-tetraazaspiro[cyclopropane-1,12′-tricyclo[7.5.0.0^2,7]tetradecane]-1′,7′-dien-14′-one] | > 6.00 |  | > 5.30
12 | O=C(c1cc2ccccc2[nH]1)N1CCc2nn3c(c2C1)C(=O)N(CCOCc1ccccc1)C1(CC3)CC1 [Example 90, 13′-[2-(benzyloxy)ethyl]-4′-(1H-indole-2-carbonyl)-4′,8′,9′,13′-tetraazaspiro[cyclopropane-1,12′-tricyclo[7.5.0.0^2,7]tetradecane]-1′,7′-dien-14′-one] | > 6.00 |  | > 5.30
13 | O=C(c1cc2ccccc2[nH]1)N1CCc2onc(C(=O)N3CCC(O)CC34CC4)c2C1 (stereo not shown) [Example 95, 4-[5-(1H-indole-2-carbonyl)-4H,5H,6H,7H-[1,2]oxazolo[4,5-c]pyridine-3-carbonyl]-4-azaspiro[2.5]octan-7-ol] | > 6.00 |  | > 5.30
14 | O=C(c1cc2ccccc2[nH]1)N1CCc2onc(C(=O)N3CCCOCC34CC4)c2C1 [Example 96, 4-[5-(1H-indole-2-carbonyl)-4H,5H,6H,7H-[1,2]oxazolo[4,5-c]pyridine-3-carbonyl]-8-oxa-4-azaspiro[2.6]nonane] | > 6.00 |  | > 5.30
15 | CN(C(=O)c1noc2c1CN(C(=O)c1cc3ccccc3[nH]1)CC2)C1(c2ccc(C(=O)O)cc2)CC1 [Example 97, 4-{1-[N-methyl-5-(1H-indole-2-carbonyl)-4H,5H,6H,7H-[1,2]oxazolo[4,5-c]pyridine-3-amido]cyclopropyl}benzoic acid] | > 6.00 |  | > 5.30
16 | CN(C(=O)c1noc2c1CN(C(=O)c1cc3ccccc3[nH]1)CC2)C1(c2ncc(C(=O)O)cn2)CC1 [Example 98, 2-{1-[N-methyl-5-(1H-indole-2-carbonyl)-4H,5H,6H,7H-[1,2]oxazolo[4,5-c]pyridine-3-amido]cyclopropyl}pyrimidine-5-carboxylic acid] | 5.00 to 6.00 |  | > 5.30
17 | C[C@@H](NC(=O)c1noc2c1CN(C(=O)c1cc3cc(F)c(Cl)cc3[nH]1)CC2)C(F)(F)F [Example 103, 5-(6-chloro-5-fluoro-1H-indole-2-carbonyl)-N-[(2R)-1,1,1-trifluoropropan-2-yl]-4H,5H,6H,7H-[1,2]oxazolo[4,5-c]pyridine-3-carboxamide] | > 6.00 |  | > 5.30
18 | C[C@@H](NC(=O)c1noc2c1CN(C(=O)c1cc3c(Cl)cccc3[nH]1)CC2)C(F)(F)F [Example 104, 5-(4-chloro-1H-indole-2-carbonyl)-N-[(2R)-1,1,1-trifluoropropan-2-yl]-4H,5H,6H,7H-[1,2]oxazolo[4,5-c]pyridine-3-carboxamide] | > 6.00 |  | > 5.30
19 | C[C@@H](NC(=O)c1noc2c1CN(C(=O)c1cc3c(F)c(F)ccc3[nH]1)CC2)C(F)(F)F [Example 105, 5-(4,5-difluoro-1H-indole-2-carbonyl)-N-[(2R)-1,1,1-trifluoropropan-2-yl]-4H,5H,6H,7H-[1,2]oxazolo[4,5-c]pyridine-3-carboxamide] | > 6.00 |  | > 5.30
20 | Cc1c(F)ccc2[nH]c(C(=O)N3CCc4onc(C(=O)N[C@H](C)C(F)(F)F)c4C3)cc12 [Example 106, 5-(5-fluoro-4-methyl-1H-indole-2-carbonyl)-N-[(2R)-1,1,1-trifluoropropan-2-yl]-4H,5H,6H,7H-[1,2]oxazolo[4,5-c]pyridine-3-carboxamide] | > 6.00 |  | > 5.30
